Source: EPA's aquatic toxicity sets

Experiments:
[1] = test system: Tetrahymena pyriformis; assay: 48 h IGC50 (-log10 mol/L); higher = more toxic
[2] = test system: Pimephales promelas; assay: 96 h LC50 (-log10 mol/L); higher = more toxic
[3] = test system: Daphnia magna; assay: 48 h LC50 (-log10 mol/L); higher = more toxic

| SMILES | 48 h IGC50 (-log10 mol/L) [1] | 96 h LC50 (-log10 mol/L) [2] | 48 h LC50 (-log10 mol/L) [3] |
| --- | --- | --- | --- |
| c1ccc(-c2ccccc2)cc1 | 4.05 | 4.72 | 4.91 |
| Nc1ccc(Cl)c(Cl)c1Cl | 4.35 | 4.74 | 5.43 |
| Cc1ccccc1O | 2.71 | 3.89 | 3.86 |
| c1ccc2c(c1)[nH]c1ccccc12 | 3.91 | 5.25 | 4.7 |
| Oc1ccccc1 | 2.65 | 3.5 | 3.85 |
| CC(O)CC(C)(C)O (stereo not drawn) | 1.05 | 1.04 | 1.22 |
| CCCCCC | 3.72 | 4.54 | 4.34 |
| Cc1cccc([N+](=O)[O-])c1 | 3.42 | 3.64 | 4.04 |
| Cc1cc(O)ccc1Cl | 3.8 | 4.42 | 4.85 |
| CNc1ccccc1 | 3.06 | 3.03 | 5.79 |
| O=[N+]([O-])c1ccc(O)c([N+](=O)[O-])c1 | 4.06 | 4.22 | 4.61 |
| CCO | 1.01 | 0.534 | 0.59 |
| COc1cccc(O)c1 | 2.67 | 3.22 | 3.48 |
| c1ccc2nc3ccccc3cc2c1 | 4.4 | 4.89 | 4.85 |
| CCc1ccc(C)nc1 | 2.82 | 3.17 | 3.48 |
| CCCCCCCO | 3.1 | 3.51 | 3.23 |
| O=[N+]([O-])c1ccccc1O | 3.67 | 2.94 | 4.02 |
| Clc1cccc(Cl)c1 | 3.56 | 4.27 | 4.3 |
| CC1=CC(=O)c2ccccc2C1=O | 4.54 | 6.2 | 5.54 |
| Cc1ccccc1 | 3.25 | 3.43 | 3 |
| Clc1ccccc1 | 2.87 | 3.65 | 3.92 |

| SMILES | 48 h IGC50 (-log10 mol/L) [1] | 96 h LC50 (-log10 mol/L) [2] | 48 h LC50 (-log10 mol/L) [3] |
| --- | --- | --- | --- |
| O=[N+]([O-])c1ccccc1 | 3.14 | 3.02 | 3.62 |
| CC#N | 0.723 | 1.61 | 1.06 |
| CCCCCCCCCc1ccc(O)cc1 | 5.47 | 5.91 | 6.06 |
| CCCO | 1.25 | 1.12 | 0.935 |
| Oc1cc(Cl)c(Cl)cc1Cl | 5.1 | 5.27 | 4.86 |
| CCCCOC(=O)c1ccccc1C(=O)OCCCC | – | 5.37 | 4.88 |
| C1CO1 | – | 2.72 | 2.33 |
| Cc1ccc(O)cc1 | 2.84 | 3.67 | 3.71 |
| C=CC=O | 4.89 | 6.32 | 5.99 |
| CCN(CC)C(=O)c1cccc(C)c1 | – | 3.24 | 3.08 |
| c1cc2c3c(cccc3c1)CC2 | – | 4.98 | 3.58 |
| CCCCC(=O)O | 2.73 | 3.12 | 3.36 |
| CC1(C)[C@H](C=C2CCCC2)[C@H]1C(=O)OCc1coc(Cc2ccccc2)c1 | – | 8.57 | 8.16 |
| CC(C)=O | 0.796 | 0.854 | 0.673 |
| CCNc1nc(Cl)nc(NC(C)C)n1 | – | 4.16 | 3.6 |
| C=Cc1ccccc1 | 2.98 | 3.79 | 3.53 |
| CCOP(=S)(OCC)SCSCC | – | 6.02 | 7.13 |
| Cc1cccc(C)c1 | – | 3.82 | 3.65 |
| ClC(Cl)(Cl)C(Cl)(Cl)Cl | – | 5.24 | 4.93 |
| O=P(O)(O)CCCl | – | 3.05 | 3.04 |
